Assay results published in PubChem BioAssay (NCI).
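Five concentrations, 48 hours, 96-well plates. The concentration for 50% growth inhibition is given as GI50. TGI: total growth inhibition.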

What was measured:
Experiment in all cases: growth of human tumour cells (NCI), 48 h
HOP-62 NSCLC = test system: HOP-62 NSCLC
NCI-H522 lung = test system: NCI-H522 lung
786-0 renal = test system: 786-0 renal
SK-MEL-28 melanoma = test system: SK-MEL-28 melanoma
SK-MEL-5 melanoma = test system: SK-MEL-5 melanoma
MDA-MB-435 = test system: MDA-MB-435
DU-145 prostate = test system: DU-145 prostate
NCI-H23 lung = test system: NCI-H23 lung
PC-3 prostate = test system: PC-3 prostate
HCT-15 colon = test system: HCT-15 colon

| SMILES | GI50 (HOP-62 NSCLC) | TGI (HOP-62 NSCLC) | GI50 (NCI-H522 lung) | TGI (NCI-H522 lung) | GI50 (786-0 renal) | TGI (786-0 renal) | GI50 (SK-MEL-28 melanoma) | TGI (SK-MEL-28 melanoma) | GI50 (SK-MEL-5 melanoma) | TGI (SK-MEL-5 melanoma) | GI50 (MDA-MB-435) | TGI (MDA-MB-435) | GI50 (DU-145 prostate) | TGI (DU-145 prostate) | GI50 (NCI-H23 lung) | TGI (NCI-H23 lung) | GI50 (PC-3 prostate) | TGI (PC-3 prostate) | GI50 (HCT-15 colon) | TGI (HCT-15 colon) |
| --- | --- | --- | --- | --- | --- | --- | --- | --- | --- | --- | --- | --- | --- | --- | --- | --- | --- | --- | --- | --- |
| CC(=O)[O][Hg][c]1c(C)c(C)cc(C)c1C | 2.02 µM | 4.05 µM | 0.194 µM | 0.486 µM | 1.76 µM | 3.28 µM | 1.5 µM | 3.02 µM | 1.8 µM | 4.66 µM | 1.27 µM | 2.74 µM | 1.86 µM | 4.62 µM | 1.03 µM | 3.32 µM | 1.73 µM | 4.5 µM | 1.49 µM | 3.88 µM |
| CCOC(=O)COc1ccc2c(C)cc(=O)oc2c1 |  | > 100 µM |  | > 100 µM |  | > 100 µM |  | > 100 µM |  | > 100 µM |  | > 100 µM |  | > 100 µM |  | > 100 µM |  | > 100 µM |  | > 100 µM |
| CCC(=O)c1c(C(F)(F)F)n([O-])c2cc(F)c(F)cc2[n+]1=O | 1.44 µM | 2.81 µM | 0.615 µM | 2.69 µM | 1.33 µM | 2.71 µM | 1.32 µM | 2.99 µM | 1.27 µM | 2.74 µM | 0.159 µM | 0.605 µM | 0.832 µM | 2.33 µM | 0.807 µM | 2.24 µM | 1.54 µM | 3.06 µM | 1.91 µM | > 100 µM |
| CN(Cc1cnc2nc(N)nc(N)c2n1)c1ccc(C(=O)NC(CCC(=O)O)C(=O)O)cc1Br (stereo not given) | < 0.01 µM |  | < 0.01 µM | 31.2 µM | < 0.01 µM |  | 0.23 µM | 19.5 µM | < 0.01 µM | 4.51 µM | < 0.01 µM | 5.15 µM | < 0.01 µM | > 100 µM | < 0.01 µM | 2.12 µM | < 0.01 µM | > 100 µM | < 0.01 µM | > 100 µM |
| O=C1c2ccccc2C(=O)c2c(OCCOCCO)cccc21 |  | > 100 µM |  | > 100 µM |  | > 100 µM |  | > 100 µM |  | > 100 µM |  | > 100 µM |  | > 100 µM |  | > 100 µM |  | > 100 µM |  | > 100 µM |
| COc1ccc(/C(C#N)=C2C=C/C(=N/O)c3ccccc3\2)cc1 | 0.376 µM | 16 µM | 0.0891 µM | 0.838 µM | 0.457 µM | 15 µM | 1.22 µM | 20 µM | 0.323 µM | 1.26 µM | 0.0388 µM | 0.179 µM | 0.34 µM | 8.85 µM | 0.403 µM | 14.4 µM | 0.322 µM | 15.7 µM | 0.168 µM | 4.52 µM |
| CO[C@H]1C[C@@H]2CC[C@@H](C)[C@@](O)(O2)C(=O)C(=O)N2CCCC[C@H]2C(=O)O[C@H]([C@H](C)C[C@@H]2CC[C@@H](OCCO)[C@H](OC)C2)CC(=O)[C@H](C)C=C(C)[C@@H](O)[C@@H](OC)C(=O)[C@H](C)C[C@H](C)/C=C/C=C/C=C1C | < 0.01 µM | 19.2 µM |  | 17.7 µM | < 0.01 µM | 20.7 µM | 11.3 µM | 24.5 µM | 1.75 µM | 18.1 µM | < 0.0332 µM | 22.1 µM |  | 16.5 µM |  | 22.7 µM | < 0.01 µM | 16.7 µM | < 0.0115 µM | 18.5 µM |
| COc1nnc2ccc(N3CCC(c4ccc(OCCN5CCN(C)C(=O)[C@H]5C)cc4)CC3)nn12 | 0.0875 µM | > 100 µM | 0.0159 µM | 0.878 µM | 0.186 µM | > 100 µM | 0.522 µM | > 100 µM | 0.155 µM | 13.7 µM | 0.0569 µM | > 100 µM | 9.88 µM | > 100 µM | 0.356 µM | > 100 µM | 0.315 µM | > 100 µM | 0.0869 µM | > 100 µM |
| Nc1ncnc2c1ncn2C1OC(CO)C(O)C1N (stereo not given) |  | > 100 µM |  | > 100 µM |  | > 100 µM |  | > 100 µM |  | > 100 µM |  | > 100 µM |  | > 100 µM |  | > 100 µM |  | > 100 µM |  | > 100 µM |
| CCN1CCN(C(=O)[C@]23CCC(C)(C)C[C@@H]2C2=CC[C@@H]4[C@@]5(C)C/C(=C/c6ccncc6)C(=O)C(C)(C)[C@@H]5CC[C@@]4(C)[C@]2(C)CC3)CC1 | 1.72 µM | 3.3 µM | 1.53 µM | 3.39 µM | 1.68 µM | 3.15 µM | 1.62 µM | 3.03 µM | 1.6 µM | 2.99 µM | 1.41 µM | 2.81 µM | 1.67 µM | 3.19 µM | 1.63 µM | 3.16 µM | 0.833 µM | 2.2 µM | 1.25 µM | 2.73 µM |
